Experimental data published in ChEMBL document CHEMBL3877269, “Structure-activity relationships and optimization of acyclic acylphloroglucinol analogues as novel antimicrobial agents” (Eur J Med Chem, 2017).
≈ marks a conversion by molar mass, not a printed value. Calls of active or inactive are those of the source. The rule behind the calls is not given here.

Assays:
[1] = test system: Staphylococcus aureus; assay: Antibacterial activity against methicillin-resistant Staphylococcus aureus JCSC 2172 after 8 to 12 hrs by resazurin dye based microdilution method; format: functional
[2] = test system: Staphylococcus aureus; assay: Antibacterial activity against drug-susceptible Staphylococcus aureus ATCC 6538 after 8 to 12 hrs by resazurin dye based microdilution method; format: functional
[3] = test system: Staphylococcus aureus; assay: Potency index, ratio of vancomycin MIC to compound MIC for methicillin-resistant Staphylococcus aureus JCSC 2172; format: functional
[4] = test system: Bacillus thuringiensis; assay: Antibacterial activity against Bacillus thuringiensis ATCC 10792 after 8 to 12 hrs by resazurin dye based microdilution method; format: functional
[5] = test system: Bacillus cereus; assay: Antibacterial activity against Bacillus cereus ATCC 10876 after 8 to 12 hrs by resazurin dye based microdilution method; format: functional
[6] = test system: Bacillus subtilis; assay: Antibacterial activity against Bacillus subtilis ATCC 11774 after 8 to 12 hrs by resazurin dye based microdilution method; format: functional
[7] = test system: Escherichia coli; assay: Antibacterial activity against Escherichia coli ATCC 8739 after 8 to 12 hrs by resazurin dye based microdilution method; format: functional
[8] = Cytotoxicity against mouse RAW264.7 cells assessed as reduction in cell viability after 24 hrs by MTT assay; format: toxicity
[9] = Selectivity ratio of IC50 for mouse RAW264.7 cells to MIC for methicillin-resistant Staphylococcus aureus JCSC 2172; format: ADME
[10] = test system: Staphylococcus aureus; assay: Bacteriostatic activity against methicillin-resistant Staphylococcus aureus JCSC 2172 at 0.5 to 2 times MIC up to 10 hrs by time-kill assay; format: functional
[11] = test system: Staphylococcus aureus; assay: Bactericidal activity against methicillin-resistant Staphylococcus aureus JCSC 2172 assessed as reduction in CFU count at 4 times MIC after 24 hrs by time-kill assay; format: functional; design: scale not given: the % may be the effect or the level left
[12] = test system: Staphylococcus aureus; assay: Bactericidal activity against methicillin-resistant Staphylococcus aureus JCSC 2172 assessed as 3-log reduction in bacterial colony at 4 times MIC up to 4 hrs by time-kill assay; format: functional
[13] = test system: Staphylococcus aureus; assay: Bactericidal activity against methicillin-resistant Staphylococcus aureus JCSC 2172 assessed induction of membrane potential dissipation at 0.5 to 8 times MIC by DiSC3-5 probe based fluorescence assay; format: functional
[14] = test system: Staphylococcus aureus; assay: Disruption of cytoplasmic membrane potential in methicillin-resistant Staphylococcus aureus JCSC 2172 at 8 times MIC after 4 hrs by SYTOX green dye based fluorescence assay; format: functional
[15] = test system: Staphylococcus aureus; assay: Induction of cell lysis in methicillin-resistant Staphylococcus aureus JCSC 2172 at 8 times MIC after 4 hrs by osmium tetroxide staining based scanning electron microscopic method; format: functional
[16] = Solubility of the compound in DMSO; format: physicochemical
[17] = test system: Staphylococcus aureus; assay: Bactericidal activity against methicillin-resistant Staphylococcus aureus JCSC 2172 assessed as 3-log reduction in bacterial colony at 4 times MIC after 10 hrs by time-kill assay; format: functional
[18] = test system: Staphylococcus aureus; assay: Disruption of cytoplasmic membrane potential in methicillin-resistant Staphylococcus aureus JCSC 2172 at 10 ug/ml after 4 hrs by SYTOX green dye based fluorescence assay; format: functional

Compound	MIC [1] [µg/mL]	MIC [2] [µg/mL]	MIC [4] [µg/mL]	MIC [5] [µg/mL]	MIC [6] [µg/mL]	MIC [7] [µg/mL]	IC50 at 24 h [8] [µg/mL]	selectivity ratio [9]	other results
CCCCCCCC(=O)c1c(O)cc(O)c([C@@H](CC(C)C)C2=C(O)C(C)(C)C(=O)C(C)(C)C2=O)c1O	0.25 (≈ 0.497 µM)	0.25 (≈ 0.497 µM)	0.25 (≈ 0.497 µM)	0.25 (≈ 0.497 µM)	0.13 (≈ 0.259 µM)	> 32	5.1 (≈ 10.1 µM)	20.4	Ratio [3]: 4; Activity [10]: >90%; Activity [11]: 99.99%; Activity [12]: Active; Activity [13]: Active; Activity [14]: Active; Activity [15]: Active
CCCCCCCCC(=O)c1c(O)cc(O)c([C@@H](CC(C)C)C2=C(O)C(C)(C)C(=O)C(C)(C)C2=O)c1O	0.5 (≈ 0.968 µM)	0.25 (≈ 0.484 µM)	0.5 (≈ 0.968 µM)	0.5 (≈ 0.968 µM)	0.25 (≈ 0.484 µM)	> 32	8.2 (≈ 15.9 µM)	16.4	–
CCCCCC(=O)c1c(O)cc(O)c([C@@H](CC(C)C)C2=C(O)C(C)(C)C(=O)C(C)(C)C2=O)c1O	2 (≈ 4.21 µM)	2 (≈ 4.21 µM)	–	–	–	–	–	–	–
CCCCCCC(=O)c1c(O)cc(O)c([C@@H](CC(C)C)C2=C(O)C(C)(C)C(=O)C(C)(C)C2=O)c1O	0.5 (≈ 1.02 µM)	0.5 (≈ 1.02 µM)	0.5 (≈ 1.02 µM)	0.5 (≈ 1.02 µM)	0.25 (≈ 0.512 µM)	> 32	8.8 (≈ 18 µM)	16.7	–
CCCCCCCCCC(=O)c1c(O)cc(O)c([C@@H](CC(C)C)C2=C(O)C(C)(C)C(=O)C(C)(C)C2=O)c1O	0.25 (≈ 0.471 µM)	0.25 (≈ 0.471 µM)	0.5 (≈ 0.942 µM)	1 (≈ 1.88 µM)	0.25 (≈ 0.471 µM)	> 32	5.1 (≈ 9.61 µM)	20.4	–
CCCCCCCCCCCCCCCC(=O)c1c(O)cc(O)c([C@@H](CC(C)C)C2=C(O)C(C)(C)C(=O)C(C)(C)C2=O)c1O	1 to 2 (≈ 1.63 to 3.25 µM)	1 (≈ 1.63 µM)	2 (≈ 3.25 µM)	8 (≈ 13 µM)	16 (≈ 26 µM)	> 32	17.5 (≈ 28.5 µM)	17.5	solubility [16]: Insoluble
CC(C)C[C@@H](C1=C(O)C(C)(C)C(=O)C(C)(C)C1=O)c1c(O)cc(O)c(C(=O)Cc2ccccc2)c1O	16 (≈ 32.4 µM)	16 (≈ 32.4 µM)	–	–	–	–	–	–	–
CCCCC(=O)c1c(O)cc(O)c([C@@H](CC(C)C)C2=C(O)C(C)(C)C(=O)C(C)(C)C2=O)c1O	8 (≈ 17.4 µM)	4 (≈ 8.68 µM)	–	–	–	–	–	–	–
CC(C)C[C@@H](C1=C(O)C(C)(C)C(=O)C(C)(C)C1=O)c1c(O)cc(O)c(C(=O)C2CCCCC2)c1O	4 (≈ 8.22 µM)	4 (≈ 8.22 µM)	–	–	–	–	–	–	–
CN[C@H](CC(C)C)C(=O)N[C@H]1C(=O)N[C@@H](CC(N)=O)C(=O)N[C@H]2C(=O)N[C@H]3C(=O)N[C@H](C(=O)N[C@H](C(=O)O)c4cc(O)cc(O)c4-c4cc3ccc4O)[C@H](O)c3ccc(c(Cl)c3)Oc3cc2cc(c3O[C@@H]2O[C@H](CO)[C@@H](O)[C@H](O)[C@H]2O[C@H]2C[C@](C)(N)[C@H](O)[C@H](C)O2)Oc2ccc(cc2Cl)[C@H]1O [VANCOMYCIN]	–	–	1 (≈ 0.69 µM)	0.25 (≈ 0.173 µM)	0.13 (≈ 0.0897 µM)	> 32	–	–	Activity [17]: Active
CC(=O)c1c(O)cc(O)c([C@@H](CC(C)C)C2=C(O)C(C)(C)C(=O)C(C)(C)C2=O)c1O	4 (≈ 9.56 µM)	4 (≈ 9.56 µM)	–	–	–	–	–	–	–
CCCC(=O)c1c(O)cc(O)c([C@@H](CC(C)C)C2=C(O)C(C)(C)C(=O)C(C)(C)C2=O)c1O	32 (≈ 71.7 µM)	32 (≈ 71.7 µM)	–	–	–	–	–	–	–
CCCCCCCCCCCC(=O)c1c(O)cc(O)c([C@@H](CC(C)C)C2=C(O)C(C)(C)C(=O)C(C)(C)C2=O)c1O	0.5 (≈ 0.895 µM)	0.5 (≈ 0.895 µM)	0.5 (≈ 0.895 µM)	1 (≈ 1.79 µM)	0.25 (≈ 0.447 µM)	> 32	7.9 (≈ 14.1 µM)	15.8	–
CC(C)C[C@@H](C1=C(O)C(C)(C)C(=O)C(C)(C)C1=O)c1c(O)cc(O)c(C(=O)C2CCC2)c1O	16 (≈ 34.9 µM)	16 (≈ 34.9 µM)	–	–	–	–	–	–	–
CC(C)C[C@@H](C1=C(O)C(C)(C)C(=O)C(C)(C)C1=O)c1c(O)cc(O)c(C(=O)C2CCCC2)c1O	> 32	32 (≈ 67.7 µM)	–	–	–	–	–	–	–
CCCCCCCCCCCCCC(=O)c1c(O)cc(O)c([C@@H](CC(C)C)C2=C(O)C(C)(C)C(=O)C(C)(C)C2=O)c1O	1 (≈ 1.7 µM)	0.5 (≈ 0.852 µM)	2 (≈ 3.41 µM)	4 (≈ 6.82 µM)	8 (≈ 13.6 µM)	> 32	13.1 (≈ 22.3 µM)	13.1	solubility [16]: Insoluble
CCC(=O)c1c(O)cc(O)c([C@@H](CC(C)C)C2=C(O)C(C)(C)C(=O)C(C)(C)C2=O)c1O	8 (≈ 18.5 µM)	8 (≈ 18.5 µM)	–	–	–	–	–	–	–
CC[C@H](C)[C@H](NC(=O)CN)C(=O)NCC(=O)N[C@@H](C)C(=O)N[C@H](C(=O)N[C@@H](CC(C)C)C(=O)N[C@@H](CCCCN)C(=O)N[C@H](C(=O)N[C@@H](CC(C)C)C(=O)N[C@H](C(=O)N[C@H](C(=O)NCC(=O)N[C@@H](CC(C)C)C(=O)N1CCC[C@H]1C(=O)N[C@@H](C)C(=O)N[C@@H](CC(C)C)C(=O)N[C@H](C(=O)N[C@@H](CO)C(=O)N[C@@H](Cc1c[nH]c2ccccc12)C(=O)N[C@H](C(=O)N[C@@H](CCCCN)C(=O)N[C@@H](CCCNC(=N)N)C(=O)N[C@@H](CCCCN)C(=O)N[C@@H](CCCNC(=N)N)C(=O)N[C@@H](CCC(N)=O)C(=O)N[C@@H](CCC(N)=O)C(N)=O)[C@@H](C)CC)[C@@H](C)CC)[C@@H](C)O)[C@@H](C)O)C(C)C)C(C)C	–	–	–	–	–	–	–	–	Activity [18]: Active
CC(C)C[C@@H](C1=C(O)C(C)(C)C(=O)C(C)(C)C1=O)c1c(O)cc(O)c(C(=O)CCc2ccccc2)c1O	8 (≈ 15.7 µM)	4 (≈ 7.86 µM)	–	–	–	–	–	–	–
CC(C)CC(=O)c1c(O)cc(O)c([C@@H](CC(C)C)C2=C(O)C(C)(C)C(=O)C(C)(C)C2=O)c1O	8 (≈ 17.4 µM)	8 (≈ 17.4 µM)	–	–	–	–	–	–	–
CCCCCCCCCCC(=O)c1c(O)cc(O)c([C@@H](CC(C)C)C2=C(O)C(C)(C)C(=O)C(C)(C)C2=O)c1O	0.5 (≈ 0.918 µM)	0.25 (≈ 0.459 µM)	0.25 (≈ 0.459 µM)	0.5 (≈ 0.918 µM)	0.25 (≈ 0.459 µM)	> 32	11.1 (≈ 20.4 µM)	22.2	–
CC(C)C[C@@H](C1=C(O)C(C)(C)C(=O)C(C)(C)C1=O)c1c(O)cc(O)c(C(=O)C(C)C)c1O	16 (≈ 35.8 µM)	16 (≈ 35.8 µM)	–	–	–	–	–	–	–
CC(C)C[C@@H](C1=C(O)C(C)(C)C(=O)C(C)(C)C1=O)c1c(O)cc(O)c(C=O)c1O	> 32	> 32	–	–	–	–	–	–	–
